In patent US6117833A, “Bleaching compositions and method for bleaching substrates directly with air” (priority 1998, dated 2000):

assay: Bleaching of tea-stained (BC-1) swatches by aldehyde + NHPI + air in Tergotometer (change in reflectance); conditions: aldehyde 15 mM, NHPI 1 mM, carbonate buffer, 30 min, 25° C., 460 nm, average of 2 values (6 for * = Exceptional Bleaching Aldehyde)
Experimental: A general outline of the essential steps in our experimental protocol are shown below.
a) Measure the initial reflectance of the swatches (Ri).
b) Saturate the wash solution with air.
c) Wash, rinse and dry the swatches.
d) Measure the final reflectance of the swatches (Rf).
All work was conducted in a Tergotometer with 2L stainless steel pots. The swatches were dried flat on a rack in a Kenmore dryer. […] The conditions utilized were as follows:
Initiator N-Hydroxyphthalimide (NHPI, 1 mM)
Aldehyde Aldehyde (15 mM)
Each Tergotometer Pot was filled with 1 liter of milli-Q-water containing carbonate buffer solution which was saturated for 15 minutes with air under agitation at 25° C. Tea stained (BC-1) swatches were washed for 30 minutes in the presence of aldehyde, air and NHPI at pH=8 (25° C.). The corresponding controls (buffer alone, NHPI alone and aldehyde alone) were performed simultaneously. All swatches were rinsed twice for 3 minutes with agitation at 25° C. and dried flat on a rack in a Kenmore with soft heat for 30 minutes.
To quantify the degree of stain removal, the reflectance of 4 stained swatches (4 per pot) were measured before and after washing using a Gardner reflectometer (Model #2000) set at 460*nm (*UV filter). The change in reflectance (ΔR) was determined by taking the difference of the swatch before and after each washing. The standard deviation (σ) and ΔΔRave was assigned to each experimental group.
Rl =Initial reflectance of stained swatch before washing.
Rf =Final reflectance of stained swatch after washing.
ΔRaldehyde system+control -ΔRcontrol =ΔΔR
ΔΔRave =Represents the average bleaching by the aldehyde system.
In general, the larger the ΔΔRave value, the greater the bleaching and cleaning.
(σ)=[Σ^n aj -aa)^2 /N-I]^0.5
Σ^n =sum (aj -aa)^2 per measurement
N=number of measurements=8

SMILES | ΔΔRave on BC-1 at pH = 8
O=Cc1ccc([N+](=O)[O-])cc1 [4-Nitrobenzaldehyde] | 0.3
Cc1ccc(C)c(C=O)c1 [2,5-Dimethylbenzaldehyde] | 8.8
O=Cc1ccccc1Br [2-Bromobenzaldehyde] | 2.1
Cc1ccc(Oc2cccc(C=O)c2)cc1 [3-(4-Methylphenoxy)benzaldehyde] | 0.0
O=Cc1ccccc1S(=O)(=O)O [1-Formylbenzene-2-sulfonic acid] | 0.5
O=Cc1ccccc1O [2-Hydroxybenzaldehyde] | 0.4
O=Cc1ccccc1Cl [2-Chlorobenzaldehyde] | 8.7
CCCCCC(C=O)=Cc1ccccc1 [α-Amylcinnamaldehyde] | 1.0
COc1ccc(C=O)cc1 [4-Methoxybenzaldehyde] | 1.2
COc1ccc(C=O)cc1C [4-Methoxy-3-Methylbenzaldehyde] | 0.4
O=Cc1cccc(F)c1 [3-Fluorobenzaldehyde] | 0.6
Cc1ccc(C=O)cc1C [3,4-Dimethylbenzaldehyde] | 10.3
CCCCCCCCCC=O [n-Decylaldehyde] | 0.6
O=CN1CCOCC1 [4-Formylmorpholine] | 0.1
CCCCCCOc1ccc(C=O)cc1 [4-Hexyloxybenzaldehyde] | 0.5
Cc1cccc(C=O)c1 [3-Methylbenzaldehyde] | 10.0
CC(C)C=O [Isobutyraldehyde] | 0.4
CCCC=O [n-Butyraldehyde] | 0.6
O=Cc1cc(Cl)cc(Cl)c1 [3,5-Dichlorobenzaldehyde] | -0.2
O=Cc1cccc(C(F)(F)F)c1 [3-Trifluoromethylbenzaldehyde] | 3.1
O=Cc1ccc(Cl)cc1 [4-Chlorobenzaldehyde] | -0.1
O=Cc1c(F)c(F)cc(F)c1F [2,3,5,6-Tetrafluorobenzaldehyde] | 0.3
O=Cc1cccc(Br)c1 [3-Bromobenzaldehyde] | 3.2

SMILES | ΔΔRave on BC-1 at pH = 8
O=Cc1ccc(C=O)cc1 [Phenyl-1,4-dicarboxyaldehyde] | -1.1
O=Cc1ccc(S(=O)(=O)O)o1 [5-Formylfuran-2 sulfonic Acid] | -3.3
CCCCCCCCCCC=O [n-Undecylaldehyde] | 0.0
O=Cc1cccc([N+](=O)[O-])c1 [3-Nitrobenzaldehyde] | 1.2
CCCOc1ccc(C=O)cc1 [4-Propyoxybenzaldehyde] | 0.2
Cc1ccccc1C=O [2-Methylbenzaldehyde] | 5.8
CC(C)(C)c1cc(C=O)cc(C(C)(C)C)c1O [4-Hydroxy-3,5-t-Butylbenzaldehyde] | 0.0
O=CCCCC=O | 0.7
O=Cc1ccc(F)cc1 [4-Fluorobenzaldehyde] | 1.6
CCOc1ccc(C=O)cc1 [4-Ethoxybenzaldehyde] | 0.4
Cc1ccc(C=O)c(C)c1 [2,4-Dimethylbenzaldehyde] | 8.9
Cc1cc(C)cc(C=O)c1 [3,5-Dimethylbenzaldehyde] | 9.3
O=Cc1cccc(C=O)c1 [Phenyl-1,3-dicarboxyaldehyde] | 0.2
COc1cccc(C=O)c1 [3-Methoxybenzaldehyde] | 0.6
O=Cc1ccc(Br)cc1 [4-Bromobenzaldehyde] | 0.1
C/C=C/C=O [Crotonaldehyde] | 0.7
O=Cc1ccccc1C(F)(F)F [2-Trifluoromethylbenzaldehyde] | 10.2
O=Cc1ccccc1C=O [Phenyl-1,2-dicarboxyaldehyde] | 1.1
CC(C)c1ccc(C=O)cc1 [4-Isopropylbenzaldehyde] | 1.5
O=CC(O)CO (racemic) [DL-Glyceraldehyde] | -0.8
CCCCCCCCCCCC=O [n-Dodecylaldehyde] | 0.2
O=Cc1ccc(C(=O)O)cc1 [4-Carboxybenzaldehyde] | -0.1
O=C[C@H](O)[C@@H](O)[C@H](O)[C@H](O)CO [D-Glucose] | 0.6

SMILES | ΔΔRave on BC-1 at pH = 8
O=Cc1ccc(C(F)(F)F)cc1 [4-Trifluoromethylbenzaldehyde] | 0.3
CN(C)c1ccc(C=O)cc1 [4-Dimethylaminobenzaldehyde] | 1.0
O=CC=O [Glyoxal] | 0.6
CC(C=O)c1ccccc1 (stereo not shown) [2-Phenylpropionaldehyde] | 0.1
O=Cc1cccc(Oc2ccccc2)c1 [3-Phenoxybenzaldehyde] | 1.1
CCCCCCC=O [n-Heptyladehyde] | 0.8
O=Cc1ccco1 [2-Furfural] | 0.2
O=Cc1cc(F)cc(F)c1 [3,5-Difluorobenzaldehyde] | 0.9
O=Cc1ccccc1 [Benzaldehyde] | 1.5
Cc1ccc(C=O)cc1 [4-Methylbenzaldehyde] | 8.3
O=Cc1ccccc1F [2-Fluorobenzaldehyde] | 1.0
O=Cc1cccc(Cl)c1 [3-Chlorobenzaldehyde] | 1.9
O=Cc1ccccc1[N+](=O)[O-] [2-Nitrobenzaldehyde] | 0.1
O=Cc1cccc(O)c1 [3-Hydroxybenzaldehyde] | 0.8
O=C/C=C/c1ccccc1 [trans-Cinnamaldehyde] | 1.2
CC(C)(C)c1ccc(C=O)cc1 [4-t-Butylbenzaldehyde] | 1.3
O=Cc1c(Cl)cccc1Cl [2,6-Dichlorobenzaldehyde] | 0.0
COc1ccccc1C=O [2-Methoxybenzaldehyde] | 0.8
O=Cc1ncc[nH]1 [2-Imidazolecarboxy Aldehyde] | -0.5
O=Cc1ccc(O)cc1 [4-Hydroxybenzaldehyde] | 0.7
COc1cc(C=O)cc(OC)c1 [3,5-Dimethoxybenzaldehyde] | 1.4
Cc1cc(C)c(C=O)c(C)c1 [2,4,6-Trimethylbenzaldehyde] | 6.3
O=Cc1cc([N+](=O)[O-])cc([N+](=O)[O-])c1 [3,5-Dinitrobenzaldehyde] | 0.1

assay: Bleaching on BC-1 by 4-Ethylbenzaldehyde with various initiators; design: key to Δ(ΔR), #1 / Δ(ΔR), #2 / Δ(ΔR), #3 / Δ(ΔR), Average / ΔΔRave: Δ(ΔR): reflectance change of stained cloth relative to buffer ΔR; conditions: initiator alone, 1 mM; average of #1-#3; σav = 0.4
Experimental: A series of experiments were conducted to evaluate the bleaching effectiveness of NHPI and related imides. Table IV reports the effectiveness on tea stained cloth swatches by various imide initiators in combination with 4-ethylbenzaldehyde.
Value for Carbonate Buffer = ΔR
Value for Initiator = Δ(ΔR)
Value for 4EBA + Initiator = Δ(ΔR)
* = Statistically significant bleaching over buffer alone (σav

SMILES | Δ(ΔR), Average
O=C1CC(S(=O)(=O)O)C(=O)N1O (stereo not shown) [NHSISA] | 0.2
O=C1C=CC(=O)N1O [NHMI] | 0.3
O=C1CCC(=O)N1O [NHSI] | 0.0
CC1(C)CCCC(C)(C)N1[O] [TEMPO] | 1.8

same assay, conditions: initiator alone, 1 mM; run #1; σav = 0.4

SMILES | Δ(ΔR), #1
O=C1CC(S(=O)(=O)O)C(=O)N1O (stereo not shown) [NHSISA] | 0.2
O=C1C=CC(=O)N1O [NHMI] | 0.6
O=C1CCC(=O)N1O [NHSI] | 0.0
CC1(C)CCCC(C)(C)N1[O] [TEMPO] | 1.8

same assay, conditions: initiator alone, 1 mM; run #2; σav = 0.4

SMILES | Δ(ΔR), #2
O=C1CC(S(=O)(=O)O)C(=O)N1O (stereo not shown) [NHSISA] | 0.5
O=C1C=CC(=O)N1O [NHMI] | 0.1
O=C1CCC(=O)N1O [NHSI] | 0.0
CC1(C)CCCC(C)(C)N1[O] [TEMPO] | 1.8

same assay, conditions: initiator alone, 1 mM; run #3; σav = 0.4

SMILES | Δ(ΔR), #3
O=C1CC(S(=O)(=O)O)C(=O)N1O (stereo not shown) [NHSISA] | 0.0
O=C1C=CC(=O)N1O [NHMI] | 0.3
O=C1CCC(=O)N1O [NHSI] | 0.0
CC1(C)CCCC(C)(C)N1[O] [TEMPO] | 1.9
